The source of these data is US7045515B2, “β-lactam compounds process for reproducing the same and serum cholesterol-lowering agents containing the same” (Kotobuki Pharmaceutical Co., Ltd., priority 2001, dated 2006).

SMILES strings stand for the structures.

This data set concerns α-N-acetyl-D-galactosaminidase. In words: Biological stability test against glycosidase (remaining substrate by NMR). The data set is classed as in vitro ADME. Particulars: for remaining substrate: α-N-acetyl galactosaminidase 0.32 unit, citric acid buffer pD=3, 35° C. Here is the method:
[Biological Stability Test]
To evaluate the stability of C-glycoside, the biological stability of C-allyl derivative (A) and O-allyl derivative (B) against to α-N-acetyl-D-galactosaminidase as glycosidase ware compared according to Mark von Itzstein's method (Org. Lett., 1999, 1, 443–446).
[drawing 118] • enzyme; α-N-acetyl galactosaminidase 0.32 unit (1.69 unit/mL 0.1% BSA containing 0.5M sodium citrate buffer) • solvent; citric acid buffer (pD=3) 0.6 mL • temperature; 35° C. • procedure; Substrate (2 mg) was dissolved in citric acid buffer (0.6 mL) and α-N-acetyl galactosaminidase (0.32 unit) was added. NMR spectrum was determined in every constant time and the content of the remaining substrates were determined.

Turning to `C=CC[C@H]1O[C@H](CO)[C@H](O)[C@H](O)[C@H]1NC(C)=O` [A], the “effect of enzyme on substrate (degradation)” value (after 24 h) is recorded as “unaffected by enzyme”. Besides, the remaining substrate is on record as 100 (time 2); 100 (time 4); 100 (time 6); 100 (time 8); 100 (time 10); 100 (time 12). Further, the remaining substrate by setting is: (time 18) 100; (time 24) 100.
